target: T1, chimeric human H3 receptor (Homo sapiens, UniProt Q9Y5N1); experiment: Chimeric human H3 receptor screening GTP binding assay (inhibition of histamine-stimulated GTP-gamma35S binding, Example 8); type: biochemical; details: 1 h; assay described in Example 8; symbol "!" in column headed Ki; read-out: Ki ("!": percent inhibition of agonist-induced GTP-gammaS binding to H3)
T1 construct: rat Galpha-i2 (Gnai2, rat); made in house; host or cells: Sf9 insect cells (baculovirus); P2 membranes
Method: This Example illustrates a representative screening assay for evaluating inhibition of histamine-stimulated GTP-gamma^35S binding. Such GTP binding activity can be used to identify H3 antagonists and inverse agonists. A compound analyzed in this assay is referred to herein as a “test compound,” and the initial identification of antagonists and inverse agonists is performed using a test compound concentration of 4 μM.
Four independent baculoviral stocks (one directing the expression of the chimeric human H3 receptor and three directing the expression of each of the three subunits of a heterotrimeric G-protein) are used to infect a culture of Sƒ9 cells as described above. P2 membranes are prepared as described above, and are resuspended by Dounce homogenization (tight pestle) in GTP binding assay buffer (50 mM Tris pH 7.4, 120 mM NaCl, 5 mM MgCl2, 2 mM EGTA, 1 mg/ml BSA, 0.2 mg/ml bacitracin, 0.02 mg/ml aprotinin, 0.01 mg/ml saponin, 10 μM GDP) and added to assay tubes at a concentration of 35 μg protein/reaction tube. Non-radiolabeled test compounds are added to separate reactions at a concentration of 4 μM along with 1 μM histamine (agonist). Reactions are initiated by the addition of 125 pM GTP-gamma^35S with a final assay volume of 0.20 ml.
After a 60-min incubation at room temperature, reactions are terminated by vacuum filtration over GF/C filters (pre-soaked in 50 mM Tris pH 7.4, 120 mM NaCl plus 0.1% BSA) followed by washing with ice-cold buffer (50 mM Tris pH 7.4, 120 mM NaCl). The amount of receptor-bound (and thereby membrane-bound) GTP-gamma^35S is determined by measuring the bound radioactivity, preferably by liquid scintillation spectrometry of the washed filters. Non-specific binding is determined using 10 uM GTP-gammaS and typically represents less than 5 percent of total binding. After subtraction of non-specific binding, data is expressed as percent inhibition of 1 μM histamine signal.
Neutral antagonists are those test compounds that reduce the histamine-stimulated GTP binding activity towards, but not below, baseline levels. In contrast, in the absence of added histamine, inverse agonists reduce the GTP binding activity of the receptor-containing membranes below baseline. Any test compound that elevates GTP binding activity above baseline in the absence of added histamine in this assay is defined as having agonist activity.

T1 sequence (Q9Y5N1 with tags, fused parts or gaps): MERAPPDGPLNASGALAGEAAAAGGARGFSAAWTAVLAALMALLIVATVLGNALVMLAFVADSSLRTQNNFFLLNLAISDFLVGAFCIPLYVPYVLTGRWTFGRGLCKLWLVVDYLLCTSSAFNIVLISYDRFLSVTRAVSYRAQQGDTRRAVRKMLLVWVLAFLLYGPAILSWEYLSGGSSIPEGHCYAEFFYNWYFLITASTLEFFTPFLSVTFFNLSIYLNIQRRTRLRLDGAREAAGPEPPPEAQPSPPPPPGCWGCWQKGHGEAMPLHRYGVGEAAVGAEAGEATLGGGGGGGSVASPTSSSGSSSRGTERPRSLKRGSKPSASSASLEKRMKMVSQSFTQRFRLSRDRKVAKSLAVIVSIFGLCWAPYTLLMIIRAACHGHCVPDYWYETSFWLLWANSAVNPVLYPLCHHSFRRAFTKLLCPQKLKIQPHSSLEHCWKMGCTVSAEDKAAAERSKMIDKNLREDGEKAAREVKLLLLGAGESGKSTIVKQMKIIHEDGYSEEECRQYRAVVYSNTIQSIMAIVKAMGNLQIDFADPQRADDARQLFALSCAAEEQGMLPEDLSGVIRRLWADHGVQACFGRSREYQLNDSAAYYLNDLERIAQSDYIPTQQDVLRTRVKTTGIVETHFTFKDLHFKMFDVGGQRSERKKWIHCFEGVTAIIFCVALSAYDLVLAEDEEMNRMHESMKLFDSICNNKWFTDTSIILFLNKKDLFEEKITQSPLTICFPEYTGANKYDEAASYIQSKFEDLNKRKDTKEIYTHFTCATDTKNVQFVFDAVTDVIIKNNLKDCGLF

Which inhibition at 4 µM does the source give for `O=C(c1cncc(C#Cc2ccccc2)c1)N1CCc2cnc(N3CCN(C4CCC4)CC3)nc2CC1` [Compound 475, 2-(4-cyclobutylpiperazin-1-yl)-7-{[5-(phenylethynyl)pyridin-3-yl]carbonyl}-6,7,8,9-tetrahydro-5H-pyrimido[4,5-d]azepine] here?
The inhibition at 4 µM was at least 90%.

How did the inhibition at 4 µM turn out when `COc1ccc(/C=C/C(=O)N2CCc3cnc(N4CCN(C5CCC5)CC4)nc3CC2)cc1OC` [Compound 560, 2-(4-cyclobutylpiperazin-1-yl)-7-[(2E)-3-(3,4-dimethoxyphenyl)prop-2-enoyl]-6,7,8,9-tetrahydro-5H-pyrimido[4,5-d]azepine] was run?
Its inhibition at 4 µM is at least 90%.

How did the inhibition at 4 µM turn out when `O=C(c1ccc(Cl)c(Cl)c1)N1CCc2cnc(N3CCN(C4CCC4)CC3)nc2CC1` [Compound 396, 2-(4-cyclobutylpiperazin-1-yl)-7-(3,4-dichlorobenzoyl)-6,7,8,9-tetrahydro-5H-pyrimido[4,5-d]azepine] was run?
The inhibition at 4 µM was at least 90%.

For `CC(C)c1ccc(/C=C/C(=O)N2CCc3cnc(N4CCN(C5CCC5)CC4)nc3CC2)cc1` [Compound 559, 2-(4-cyclobutylpiperazin-1-yl)-7-[(2E)-3-(4-isopropylphenyl)prop-2-enoyl]-6,7,8,9-tetrahydro-5H-pyrimido[4,5-d]azepine], which inhibition at 4 µM is on record?
Its inhibition at 4 µM is at least 90%.

`O=C(c1csnn1)N1CCc2cnc(N3CCN(C4CCC4)CC3)nc2CC1` [Compound 527, 2-(4-cyclobutylpiperazin-1-yl)-7-(1,2,3-thiadiazol-4-ylcarbonyl)-6,7,8,9-tetrahydro-5H-pyrimido[4,5-d]azepine] was tested. Which inhibition at 4 µM did it give?
Its inhibition at 4 µM is at least 90%.

Which inhibition at 4 µM does the source give for `Cc1nnsc1C(=O)N1CCc2cnc(N3CCN(C4CCC4)CC3)nc2CC1` [Compound 528, 2-(4-cyclobutylpiperazin-1-yl)-7-[(4-methyl-1,2,3-thiadiazol-5-yl)carbonyl]-6,7,8,9-tetrahydro-5H-pyrimido[4,5-d]azepine] here?
Its inhibition at 4 µM is at least 90%.

For `O=C(c1cccs1)N1CCc2cnc(N3CCN(C4CCC4)CC3)nc2CC1` [Compound 443, 2-(4-cyclobutylpiperazin-1-yl)-7-(2-thienylcarbonyl)-6,7,8,9-tetrahydro-5H-pyrimido[4,5-d]azepine], which inhibition at 4 µM is on record?
The inhibition at 4 µM was at least 90%.

same assay, conditions: 1 h; assay of Example 8; symbol "!" in column headed Ki; read-out: percent inhibition of agonist-induced GTP-gammaS binding to H3

Which inhibition at 4 µM does the source give for `CCCCCN1CCc2cnc(N3CCN(C4CCC4)CC3)nc2CC1` [Compound 249, 2-(4-cyclobutylpiperazin-1-yl)-7-pentyl-6,7,8,9-tetrahydro-5H-pyrimido[4,5-d]azepine] here?
Its inhibition at 4 µM is at least 90%.

With `COCCC(=O)N1CCc2cnc(N3CCN(C4CCC4)CC3)nc2CC1` [Compound 214, 2-(4-cyclobutylpiperazin-1-yl)-7-(3-methoxypropanoyl)-6,7,8,9-tetrahydro-5H-pyrimido[4,5-d]azepine] as the compound, how does the inhibition at 4 µM read?
The inhibition at 4 µM was at least 90%.

Which inhibition at 4 µM does the source give for `COc1ccc(/C=C/C(=O)N2CCc3cnc(N4CCN(C5CCC5)CC4)nc3CC2)c(Cl)c1OC` [Compound 586, 7-[(2E)-3-(2-chloro-3,4-dimethoxyphenyl)prop-2-enoyl]-2-(4-cyclobutylpiperazin-1-yl)-6,7,8,9-tetrahydro-5H-pyrimido[4,5-d]azepine] here?
The inhibition at 4 µM was at least 90%.

`COc1ccc(C(=O)N2CCc3cnc(N4CCN(C5CCC5)CC4)nc3CC2)cc1F` [Compound 371, 2-(4-cyclobutylpiperazin-1-yl)-7-(3-fluoro-4-methoxybenzoyl)-6,7,8,9-tetrahydro-5H-pyrimido[4,5-d]azepine] was tested. Which inhibition at 4 µM did it give?
Its inhibition at 4 µM is at least 90%.

Which inhibition at 4 µM does the source give for `CC(Oc1ccc(OC(F)(F)F)cc1)C(=O)N1CCc2cnc(N3CCN(C4CCC4)CC3)nc2CC1` (centres unmarked) [Compound 343, 2-(4-cyclobutylpiperazin-1-yl)-7-{2-[4-(trifluoromethoxy)phenoxy]propanoyl}-6,7,8,9-tetrahydro-5H-pyrimido[4,5-d]azepine] here?
Its inhibition at 4 µM is at least 90%.

For `Cc1ccc(OCC(=O)N2CCc3cnc(N4CCN(C5CCC5)CC4)nc3CC2)cc1` [Compound 316, 2-(4-cyclobutylpiperazin-1-yl)-7-[(4-methylphenoxy)acetyl]-6,7,8,9-tetrahydro-5H-pyrimido[4,5-d]azepine], which inhibition at 4 µM is on record?
The inhibition at 4 µM was at least 90%.

`CC(C)C(C(=O)N1CCc2cnc(N3CCN(C4CCC4)CC3)nc2CC1)c1ccccc1` (centres unmarked) [Compound 349, 2-(4-cyclobutylpiperazin-1-yl)-7-(3-methyl-2-phenylbutanoyl)-6,7,8,9-tetrahydro-5H-pyrimido[4,5-d]azepine] was tested. Which inhibition at 4 µM did it give?
Its inhibition at 4 µM is at least 90%.

Which inhibition at 4 µM does the source give for `Cn1ccnc1CN1CCc2cnc(N3CCN(C4CCC4)CC3)nc2CC1` [Compound 235, 2-(4-cyclobutylpiperazin-1-yl)-7-[(1-methyl-1H-imidazol-2-yl)methyl]-6,7,8,9-tetrahydro-5H-pyrimido[4,5-d]azepine] here?
The inhibition at 4 µM was at least 90%.

`O=C(c1ccno1)N1CCc2cnc(N3CCN(C4CCC4)CC3)nc2CC1` [Compound 200, 2-(4-cyclobutylpiperazin-1-yl)-7-(isoxazol-5-ylcarbonyl)-6,7,8,9-tetrahydro-5H-pyrimido[4,5-d]azepine] was tested. Which inhibition at 4 µM did it give?
Its inhibition at 4 µM is at least 90%.

For `Cc1ccc(C)c(OCC(=O)N2CCc3cnc(N4CCN(C5CCC5)CC4)nc3CC2)c1` [Compound 334, 2-(4-cyclobutylpiperazin-1-yl)-7-[(2,5-dimethylphenoxy)acetyl]-6,7,8,9-tetrahydro-5H-pyrimido[4,5-d]azepine], which inhibition at 4 µM is on record?
Its inhibition at 4 µM is at least 90%.

`O=C(COc1cccc2ccccc12)N1CCc2cnc(N3CCN(C4CCC4)CC3)nc2CC1` [Compound 335, 2-(4-cyclobutylpiperazin-1-yl)-7-[(1-naphthyloxy)acetyl]-6,7,8,9-tetrahydro-5H-pyrimido[4,5-d]azepine] was tested. Which inhibition at 4 µM did it give?
The inhibition at 4 µM was at least 90%.

How did the inhibition at 4 µM turn out when `Cc1cc(C)cc(C(=O)N2CCc3cnc(N4CCN(C5CCC5)CC4)nc3CC2)c1` [Compound 359, 2-(4-cyclobutylpiperazin-1-yl)-7-(3,5-dimethylbenzoyl)-6,7,8,9-tetrahydro-5H-pyrimido[4,5-d]azepine] was run?
Its inhibition at 4 µM is at least 90%.

same assay, conditions: symbol ! in Ki; test compound 4 μM, 1 μM histamine; read-out: percent inhibition of agonist-induced GTP-gammaS binding to H3

`CC(C)c1ccc(CN2CCc3nc(N4CCN(C5CCC5)CC4)ncc3C2)cc1` [Compound 625, 2-(4-cyclobutylpiperazin-1-yl)-6-(4-isopropylbenzyl)-5,6,7,8-tetrahydropyrido[4,3-d]pyrimidine] was tested. Which inhibition at 4 µM did it give?
The inhibition at 4 µM was at least 90%.

Which inhibition at 4 µM does the source give for `Fc1ccc(CN2CCc3nc(N4CCN(C5CCC5)CC4)ncc3C2)cc1` [Compound 613, 2-(4-cyclobutylpiperazin-1-yl)-6-(4-fluorobenzyl)-5,6,7,8-tetrahydropyrido[4,3-d]pyrimidine] here?
The inhibition at 4 µM was at least 90%.

With `CC(c1ccc(N2CCCC2)nc1)N1CCc2c(ncnc2N2CCN(C3CCC3)CC2)C1` (centres unmarked) [Compound 133, 4-(4-cyclobutylpiperazin-1-yl)-7-[1-(6-pyrrolidin-1-ylpyridin-3-yl)ethyl]-5,6,7,8-tetrahydropyrido[3,4-d]pyrimidine] as the compound, how does the inhibition at 4 µM read?
The inhibition at 4 µM was at least 90%.

With `CNC(=O)c1ccc(CN2CCc3c(ncnc3N3CCN(C4CCC4)CC3)C2)cc1` [Compound 140, 4-{[4-(4-cyclobutylpiperazin-1-yl)-5,8-dihydropyrido[3,4-d]pyrimidin-7(6H)-yl]methyl}-N-methylbenzamide] as the compound, how does the inhibition at 4 µM read?
Its inhibition at 4 µM is at least 90%.

With `Cc1ccc(CN2CCc3c(ncnc3N3CCN(C4CCC4)CC3)C2)cc1` [Compound 70, 4-(4-cyclobutylpiperazin-1-yl)-7-(4-methylbenzyl)-5,6,7,8-tetrahydropyrido[3,4-d]pyrimidine] as the compound, how does the inhibition at 4 µM read?
Its inhibition at 4 µM is at least 90%.

How did the inhibition at 4 µM turn out when `COc1ccc(C(C)N2CCc3c(ncnc3N3CCN(C4CCC4)CC3)C2)c(OC)c1` (centres unmarked) [Compound 114, 4-(4-cyclobutylpiperazin-1-yl)-7-[1-(2,4-dimethoxyphenyl)ethyl]-5,6,7,8-tetrahydropyrido[3,4-d]pyrimidine] was run?
The inhibition at 4 µM was at least 90%.

For `Cc1ccc(C(C)N2CCc3c(ncnc3N3CCN(C4CCC4)CC3)C2)cc1C` (centres unmarked) [Compound 128, 4-(4-cyclobutylpiperazin-1-yl)-7-[1-(3,4-dimethylphenyl)ethyl]-5,6,7,8-tetrahydropyrido[3,4-d]pyrimidine], which inhibition at 4 µM is on record?
Its inhibition at 4 µM is at least 90%.

How did the inhibition at 4 µM turn out when `CCn1cncc1CN1CCc2nc(N3CCN(C4CCC4)CC3)ncc2C1` [Compound 642, 2-(4-cyclobutylpiperazin-1-yl)-6-[(1-ethyl-1H-imidazol-5-yl)methyl]-5,6,7,8-tetrahydropyrido[4,3-d]pyrimidine] was run?
The inhibition at 4 µM was at least 90%.

Which inhibition at 4 µM does the source give for `c1nc2c(c(N3CCN(C4CCC4)CC3)n1)CCN(Cc1ccc(N3CCCC3)nc1)CC2` [Compound 178, 4-(4-cyclobutylpiperazin-1-yl)-7-[(6-pyrrolidin-1-ylpyridin-3-yl)methyl]-6,7,8,9-tetrahydro-5H-pyrimido[4,5-d]azepine] here?
Its inhibition at 4 µM is at least 90%.

For `CCCCCC(C)N1CCc2c(ncnc2N2CCN(C3CCC3)CC2)C1` (centres unmarked) [Compound 120, 4-(4-cyclobutylpiperazin-1-yl)-7-(1-methylhexyl)-5,6,7,8-tetrahydropyrido[3,4-d]pyrimidine], which inhibition at 4 µM is on record?
Its inhibition at 4 µM is at least 90%.
